Paper PMC4576851 (Organic & biomolecular chemistry, 2015)

Molecular target: p97 (valosin containing protein, VCP, cdc48) (Homo sapiens, UniProt P55072)
Experiment: p97 ATPase inhibition assay
Type: biochemical

Sequence of p97 (valosin containing protein, VCP, cdc48) (P55072 2-806): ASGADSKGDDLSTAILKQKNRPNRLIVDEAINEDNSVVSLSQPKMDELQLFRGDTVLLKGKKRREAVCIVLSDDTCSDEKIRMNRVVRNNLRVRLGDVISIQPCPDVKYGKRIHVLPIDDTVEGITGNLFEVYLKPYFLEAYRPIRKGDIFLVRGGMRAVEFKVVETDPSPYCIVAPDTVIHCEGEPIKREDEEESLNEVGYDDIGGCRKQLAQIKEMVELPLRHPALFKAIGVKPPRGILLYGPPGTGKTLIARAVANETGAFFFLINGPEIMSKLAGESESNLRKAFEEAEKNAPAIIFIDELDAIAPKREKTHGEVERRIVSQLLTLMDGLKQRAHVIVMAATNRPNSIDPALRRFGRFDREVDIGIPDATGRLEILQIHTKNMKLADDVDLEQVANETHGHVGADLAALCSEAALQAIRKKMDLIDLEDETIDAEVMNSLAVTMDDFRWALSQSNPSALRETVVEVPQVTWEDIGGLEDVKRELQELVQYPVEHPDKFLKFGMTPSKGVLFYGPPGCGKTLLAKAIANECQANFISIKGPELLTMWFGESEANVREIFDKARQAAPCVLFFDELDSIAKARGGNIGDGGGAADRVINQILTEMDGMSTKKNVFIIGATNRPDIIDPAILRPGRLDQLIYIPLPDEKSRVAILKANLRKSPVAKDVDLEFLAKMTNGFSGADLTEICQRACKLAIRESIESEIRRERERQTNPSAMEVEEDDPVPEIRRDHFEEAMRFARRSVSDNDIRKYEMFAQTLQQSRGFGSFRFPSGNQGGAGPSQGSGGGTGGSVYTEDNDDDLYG

C=C1OC(=O)C2(C1=O)[C@H](/C=C/C=C/CCC)C=C[C@@H](O)[C@@H]2O (stereo partly shown) [compound 2, oxaspirol B]
IC50: 31.2 ± 3 µM
